Data reported in US12428455B2, “Dominant negative CEBPB and CEBPD proteins and methods of use for decreasing viability of neoplastic cells” (The Trustees of Columbia University in the City of New York, priority 2018, dated 2025).
No end group written: not given here.

Tests used:
Type in all cases: cell-based
T98G glioblastoma cells = test: Cell number (growth and survival) after peptide treatment, T98G; conditions: for growth and survival of T98G cells, time course: 10 μM or 20 μM for 1-6 days; for growth and survival of T98G cells, time course / number of T98G cells / morphology, growth and survival of T98G cells: stock without BSA; for number of T98G cells: 6-7 days; for number of T98G cells / effect of BSA in stock buffer on potency in suppressing growth and survival: 0 μM to 50 μM; for morphology, growth and survival of T98G cells: 5 days, 10 or 20 μM (CP-DN-CEBPB), 3, 10, 20 or 50 μM (CP-DN-CEBPD); for effect of BSA in stock buffer on potency in suppressing growth and survival: 6 days, BSA 3 mg/ml in stock, 0.6 mg/ml in medium
Experimental: Replicate T98G glioblastoma cell cultures were exposed to dominant negative (DN) synthetic peptides having an N-terminal penetratin sequence followed by a CEBPB or CEBPD native leucine zipper sequence (CP-DN-CEBPB or CP-DN-CEBPD, respectively) for 5 days at final concentrations of 10 μM or 20 μM (CP-DN-CEBPB) or 3 μM, 10 μM, 20 μM or 50 μM (CP-DN-CEBPD). Stock solutions of the peptides were prepared in buffer without added bovine serum albumin (BSA).
Replicate T98G glioblastoma cell cultures were exposed to CP-DN-CEBPB or CP-DN-CEBPD, for 6-7 days at doses of 0 μM to 50 μM. […] Stock solutions of the peptides were prepared in buffer without added bovine serum albumin (BSA).
Replicate T98G cell cultures were exposed to CP-DN-CEBPB or CP-DN-CEBPD peptides (10 μM or 20 μM) for 1, 2, 3, 4, 5, or 6 days. […] Values shown in FIG. 7A and FIG. 7B represent means from 3 replicate cultures. Stock solutions of the peptides were prepared in buffer without added bovine serum albumin (BSA).
Four replicate cultures of T98G cells were treated for 6 days with a cell penetrating dominant negative CEBPB (CP-DN-CEBPB; FIG. 8A) or a cell penetrating dominant negative CEBPD (CP-DN-CEBPD; FIG. 8B) at doses of 0 μM to 50 μM, with or without bovine serum albumin (BSA). […] Concentration of BSA in the stock solution, when present, was 3 mg/ml. The final concentration of BSA in the cell culture medium was 0.6 mg/ml. Values represent means of determinations made on 4 replicate cultures for each condition.
Replicate cultures of HCT116, MDA-MB 231, MCF7, and T98G cells were exposed to a 50/50 by concentration mixture of CP-DN-CEBPB and CP-DN-CEBPD for 6 days at doses of 0 μM to 50 μM. Stock solutions of the peptides were prepared in buffer without added bovine serum albumin (BSA).
Replicate cultures of T98G, HCT116, MDA-MB 231, and MCF7 cells were exposed to CP-DN-CEBPB, CP-DN-CEBPD, or a CP-DN-CEBPD in which heptad repeat leucine residues were mutated to glycine residues for 6 days at doses of 0 μM to 50 μM. Stock solutions of the peptides were prepared in buffer without added bovine serum albumin (BSA).

MDA-MB 231 cells [1] = test: Colony forming activity in soft agar, MDA-MB 231; conditions: 6 days; doses 0.05, 0.5 and 5 μM
Experimental: (§1) T98G (FIG. 21A), MDA-MB 231 (FIG. 21B), and HCT116 (FIG. 21C) cells were exposed to CP-DN-CEBPB and CP-DN-CEBPD for 6 days at doses of 0.05 μM 0.5 μM, and 5 μM while growing in soft agar. Growth was inhibited by does as low as 0.5 μM. T98G (FIG. 21D), MDA-MB 231 (FIG. 21E), and HCT116 (FIG. 21F) cells were exposed to CP-DN-CEBPB and CP-DN-CEBPD for 6 days at doses of 0.05 μM 0.5 μM, and 5 μM while growing on culture plates. Growth was inhibited by does as low as 0.5 μM.

MDA-MB 231 cells [2] = test: Colony forming activity on culture plates, MDA-MB 231; conditions: 6 days; doses 0.05, 0.5 and 5 μM
Experimental: as §1

T98G cells = test: Scratch migration assay, T98G; conditions: 20 hours, 20 μM or 40 μM
Experimental: Monolayers of MDA-MB 231 or T98G cells were subjected to formation of a scratch at 0 time and cultured for 20 hours in 20 μM or 40 μM CP-DN-CEBPB and CP-DN-CEBPD. Multiple images taken at 0 time and after 20 hours were analyzed for gap width of the scratches into which cells migrated or not. Example images for T98G are found in FIG. 22A, with compiled data for the T98G samples in FIG. 22B. Example images for MDA-MB 231 are found in FIG. 22C, with compiled data for the MDA-MB 231 samples in FIG. 22D.

HCT116 cells = test: Combination with chloroquine, cell number, HCT116; conditions: 5 μM or 10 μM chloroquine and 3 μM or 10 μM peptide, 6 days
Experimental: Replicate cultures of T98G, MDA-MB 231, and HCT116 cells were treated with 5 μM or 10 μM chloroquine and 3 μM or 10 μM CP-dn-CEBPB and CP-dn-CEBPD peptides, maintained for 6 days, and then assessed for cell number. The bar graphs of FIGS. 29A (T98G, CP-dn-CEBPB), 29C (T98G, CP-dn-CEBPBD, 29E (MDA-MB-231, CP-dn-CEBPBD), 29G (MDA-MB-231, CP-dn-CEBPD), 29I (HCT116, CP-dn-CEBPBB), and 26K (HCT116, CP-dn-CEBPBD) show relative cell numbers for each condition as compared to untreated controls. The line graphs of FIGS. 26B (T98G, CP-dn-CEBPB), 26D (T98G, CP-dn-CEBPBD), 26F (MDA-MB-231, CP-dn-CEBPB), 26H (MDA-MB-231, CP-dn-CEBPD), 26J (HCT116, CP-dn-CEBPB), and 26L (HCT116 CP-dn-CEBPBD) show the response as normalized in each case so that 100 represents the relative number of surviving cells that received the indicated level of chloroquine, but no peptide treatment. The results ranged from near-additive (HCT116 cells, CI=0.92±0.08 for CP-dn-CEBPB and 0.87±0.07 for CP-dn-CEBPD) to apparent synergy (T98G, CI=0.56±0.06 for CP-dn-CEBPB and 0.75±0.03 for CP-dn-CEBPD; MDA-MB-261, CI=0.59±0.11 for CP-dn-CEBPB and 0.47±0.05 for CP-dn-CEBPD).

IL6 = test: qPCR for IL6 mRNA; conditions: 20 μM, 3 days; T98G, MDA-MB-231, MCF7, A375 and HCT116 cells
Experimental: T98G, MDA-MB-231, MCF7, A375, and HCT116 cells were treated with or without 20 μM CP-dn-CEBPB or CP-dn-CEBPD for 3 days and then assessed by qPCR for relative levels of IL6 (FIG. 32A, T98G; FIG. 32B, MDA-MB-231; FIG. 32C, MCF7; FIG. 32D, A375; FIG. 32E, HCT116) and IL8 mRNA (FIG. 32F, T98G; FIG. 32G, MDA-MB-231; FIG. 32H, MCF7; FIG. 32I, A375; FIG. 32J, HCT116).

Sequence	growth and survival of T98G cells, time course (T98G glioblastoma cells)	number of T98G cells (T98G glioblastoma cells)	morphology, growth and survival of T98G cells (T98G glioblastoma cells)	effect of BSA in stock buffer on potency in suppressing growth and survival (T98G glioblastoma cells)	lowest dose at which growth was inhibited, soft agar (MDA-MB 231 cells [1]) [µM]	lowest dose at which growth was inhibited, culture plates (MDA-MB 231 cells [2]) [µM]	cell migration into scratch (gap width) (T98G cells)	CI with chloroquine (HCT116 cells)	relative levels of IL6 mRNA (IL6)
RQIKIWFQNRRMKWKKLETQHKVLELTAENERLQKKVEQLSRELSTLRNLFKQL [CP-DN-CEBPB]	decreased as compared to untreated control cells	dose-responsively decreased	dose-responsively affected the morphology, growth and survival	greatly increased the potency	0.5	0.5	able to inhibit migration	0.92±0.08	suppress expression
RQIKIWFQNRRMKWKKLVELSAENEKLHQRVEQLTRDLAGLRQFFK [CP-DN-CEBPD]	decreased as compared to untreated control cells	dose-responsively decreased	dose-responsively affected the morphology, growth and survival	greatly increased the potency	0.5	0.5	able to inhibit migration	0.87±0.07	suppress expression
